The record followed here is patent US20210270801A1, “TOPOGRAPHICALLY GUIDED CELL MIGRATION DEVICES AND METHODS” (priority 2018, published 2021).

This experiment relates to MCF10A cells. The experiment is described as follows: Impedimetric collective cell migration assay with proliferation inhibitor. As to conditions: 1 ng/ml. The class given is cell-based. On the procedure:
In experiments designed to validate the proper functioning of devices, systems and methods for CMAPs of the present disclosure, MCF10A cells, a non-tumorigenic mammary epithelial cell line, were chosen as the cell model to validate whether a Nafion-nanotextured substrate is suitable for cell growth and migration. Cell monolayers were grown to cover a half of the area of each well to achieve a uniform condition at the beginning of the experiment. An elastomeric silicone (polydimethylsiloxane or PDMS) block was attached to the Nafion-patterned surface in each well, and then the MCF10A cells were seeded into the notch of the PDMS block at a seeding density of 20,000 cells per well. After 24 hours of incubation, the cells grew into a cell monolayer in the cell-seeding region and the PDMS block in each well was removed to initiate an impedimetric recording of collective cell migration. Cells migrated collectively as a cell sheet in a migration direction toward the other side of the well along the direction of nanogrooves and reached the end of the nanotextured migration area after 60-hour of migration.
Additional validation studies were carried out to determine whether collective cell migration behaviors are affected by the nanotextured cell-interface surface, which mimics the topography of in vivo cell migration microenvironment. MCF10A cells were grown on both nanotextured and untextured surfaces and the distances between the cell sheet border at 0 hour and 60 hours were measured.
Identifying effective drugs that target tumor metastasis is one of the ultimate goals of cancer migration assays. For this reason, a CMAP of the present disclosure was used to assess its capability to detect drug effects by using widely applied inhibitors. In this experiment, 1 ng/ml mitomycin C was used to inhibit MCF10A cell proliferation to determine whether collective cell migration is still faster on Nafion-nanotextured surfaces than on the untextured surfaces, after eliminating proliferation as a confounding factor.

`CO[C@@]12[C@H](COC(N)=O)C3=C(C(=O)C(C)=C(N)C3=O)N1C[C@@H]1N[C@@H]12` [mitomycin C]: the collective migration entry (Nafion-nanotextured (NP) surface, compared with UP untreated, P<0.05) is reported as “continued to migrate with alacrity, even outpacing their UP untreated counterparts”. The “collective migration after proliferation inhibition” value (both nanotextured (NP) and untextured (UP) groups, impedance at 10 kHz) was “substantially slowed but did not inhibit collective migration”. For the same molecule, the “collective migration / change in impedance over the duration” value (untextured (UP) surface) was “migrated minimally as expected with no significant change in impedance”.
